Data on one compound can be found in US20210177814A1, “USE OF GUANABENZ OR DERIVATES THEREOF FOR THE TREATMENT OF TYPE I IFN-DEPENDENT PATHOLOGIES” (INSERM (Institut National de la Santé et de la Recherche …, priority 2018, published 2021).

SMILES strings stand for the structures.

For series [1] the following is noted: mouse, cited from earlier work.
Series [2] deals with T1, hTLR7 (Homo sapiens, UniProt Q9NYK1).
T1 construct: expressed in transfected cells; host or cells: HEK-Blue (HEK 293) hTLR7 reporter cells
T1 sequence (Q9NYK1 27-1049): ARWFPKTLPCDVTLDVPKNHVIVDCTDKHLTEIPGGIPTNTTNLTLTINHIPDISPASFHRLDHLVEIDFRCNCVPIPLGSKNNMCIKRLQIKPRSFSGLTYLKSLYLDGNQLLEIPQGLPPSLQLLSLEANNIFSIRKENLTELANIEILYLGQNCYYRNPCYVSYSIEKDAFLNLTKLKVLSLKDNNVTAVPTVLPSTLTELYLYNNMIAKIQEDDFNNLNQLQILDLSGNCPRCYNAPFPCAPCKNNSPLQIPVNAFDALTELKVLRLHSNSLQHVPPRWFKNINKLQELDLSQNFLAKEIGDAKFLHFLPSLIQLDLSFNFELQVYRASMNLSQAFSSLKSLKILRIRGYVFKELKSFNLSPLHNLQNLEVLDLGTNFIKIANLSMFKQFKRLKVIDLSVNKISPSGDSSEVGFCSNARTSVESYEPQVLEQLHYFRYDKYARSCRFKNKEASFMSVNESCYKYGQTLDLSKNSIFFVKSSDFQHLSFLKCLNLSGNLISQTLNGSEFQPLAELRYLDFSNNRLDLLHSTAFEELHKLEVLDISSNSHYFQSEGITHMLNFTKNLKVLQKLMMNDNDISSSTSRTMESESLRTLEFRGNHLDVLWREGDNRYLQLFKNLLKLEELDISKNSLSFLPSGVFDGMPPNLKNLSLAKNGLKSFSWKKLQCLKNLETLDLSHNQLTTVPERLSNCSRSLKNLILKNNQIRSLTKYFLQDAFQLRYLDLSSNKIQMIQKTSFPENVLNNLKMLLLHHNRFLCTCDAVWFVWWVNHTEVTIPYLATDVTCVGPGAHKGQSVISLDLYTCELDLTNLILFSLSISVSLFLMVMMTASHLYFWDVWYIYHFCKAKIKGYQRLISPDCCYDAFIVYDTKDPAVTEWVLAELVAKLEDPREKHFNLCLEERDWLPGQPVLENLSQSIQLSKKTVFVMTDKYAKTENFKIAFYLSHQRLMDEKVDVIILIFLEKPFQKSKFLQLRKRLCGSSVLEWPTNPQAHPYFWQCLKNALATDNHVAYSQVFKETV
Description: HEK-Blue hTLR7 SEAP reporter assay. The series is classed as cell-based. The note with it: 5 μg/mL imiquimod, GBZ 50 μM. How it is done:
FIG. 1: Guanabenz inhibits TLR3 and TLR9 activation in mouse Flt3-L DCs and human blood pDCs. A) Sorted bone marrow derived Flt3L-DCs were activated for 6 h with 10 μg/mL poly I:C LMW (TLR3 in DC1) or 1 μM ODN 1585 (TLR9 in pDCs). GBZ was added at 50 μM and inhibited IFN-β and Interleukin-6 (IL-6) production in activated cells. B) hTLR4, hTLR3, hTLR9 and hTLR7 expressed in the reporter HEK-Blue™ cells are inhibited by GBZ. TLR-expressing HEK-Blue™ cells were respectively activated with 100 ng/mL LPS, 10 μg/mL poly I:C LMW, 2.5 μM ODN 2006 or 5 μg/mL imiquimod, respectively. GBZ was added at 50 μM. TLR activity was measured indirectly through SEAP activity as absorbance at 405 nm. […] Protein concentration of IFN-α and TNF-α secreted were measured at the indicated time points or at 16 h. […]
Given the efficiency of GBZ on mouse TLR3 and TLR9, we turned to human TLRs, in order to extend the relevance of our observations. GBZ-mediated inhibition was first evaluated on NF-kB signaling by monitoring secreted alkaline phosphatase (SEAP) reporter levels in HEK-293 cells expressing TLR3, TLR4, TLR7, TLR9 (FIG. 1B). […] The functionality of the TLR9 transduction pathway was next evaluated by using phospho-flow detection of 40S ribosomal protein S6 (rpS6) phosphorylation, a well characterized early signaling event down-stream of TLR activation by LPS or viruses.

Consider `NC(N)=N/N=C/c1c(Cl)cccc1Cl` [GBZ, 2-(2,6-dichlorobenzylidene)-hydrazinecarboximidamide], for which the spinal cord accumulation result in series [1] (several hours after single i.p. bolus 2 mg/kg) is on record as “approximately 7 μM”. In series [1] (single i.p. bolus 2 mg/kg), the plasma half-life was 1.8 h. In series [2], the “TLR7-dependent activation of the SEAP reporter” value is “inhibited”.
